The subject of assay [1] is Aβ1-42-mediated neuronal cell death. Briefly: Inhibition of Aβ1-42-mediated neuronal cell death in Aβ1-42-microinjected neurons, TUNEL. Format: cell-based, human. The settings on record: 1 hour pre-incubation, 24 hours; for inhibition of the Aβ1-42-induced cell death / prevention of Aβ1-42-induced neuronal cell death (in words): 5 μM inhibitor; for block of Aβ1-42-induced neuronal death (in words): 5 μg/ml cycloheximide or 5 μM actinomycin D. The procedure:
cDNA Clones. Human Bcl-2 cDNA, Bax α cDNA, and APP695 cDNA were cloned into pCep4β (Invitrogen Canada, Burlington, ON, Canada). The p53 wild type and p53R273H dominant negative cDNA may be cloned in the pCMV-NEO vector. These cDNAs were purified through GlassMAXTM (Gibco-BRL, Rockville, Mass.) and diluted at 30 ng/μl in PBS before injection.
Neutralizing Bax antibodies. Monoclonal anti-Bax 6A7 (amino acids 12-24: Pharmingen, San Diego, Calif.) and 2D2 (amino acids 3-16: Trevigen, Gaithersburg, Md.), polyclonal anti-Bax N-20 (Santa Cruz Biotechnology, Santa Cruz, Calif.), monoclonal anti-APP 22C11 (Roche Molecular Biochemicals, Laval, PQ, Canada), mouse IgG or rabbit sera were diluted at 50 μg/ml (for 6A7, 2D2, mouse IgG and 22C11) or 25 μg/ml (for polyclonal anti-Bax and rabbit sera) in PBS before use. A toxicity curve was done to determine this concentration as the highest non-toxic concentration that can be injected in neurons.
(§1) Microinjection. Thin-walled Borosilicate glass capillaries (OD 1.0 mm, ID 0.5 mm) with microfilament (MTW1OOF-4, World Precision Instrument, Sarasota, Fla.) were pulled with a Flaming/Brown Micropipefte Puller (β-87, Sutter, Novato, Calif.) to obtain injection needles with a tip diameter of ˜0.5 μm. Microinjection was performed in the cytosol of each cell using the Eppendorf Microinjector 5246 (Hamburg, Germany) and Burleigh Micromanipulator MIS-5000 (Victor, N.Y.). Human neurons were injected with 25 pl/shot at an injection pressure of 100 hPa, a compensation pressure of 50 hPa, and an injection time of 0.1 s. Human astrocytes, M17, NT2 and La—N-1 cells were injected with 8 pl/shot at an injection pressure of 50 hPa, a compensation pressure of 30 hPa and an injection time of 0.1 s.
Measurement of neuronal apoptosis. Cells were fixed in freshly prepared 4% paraformaldehyde/4% sucrose for 20 minutes at room temperature and permeabilized in 0.1% Triton X-100, 0.1% sodium citrate on ice for 2 minutes. Terminal deoxynucleotidyl transferase-mediated dUTP nick end labeling (TUNEL) was performed using the In Situ Cell Death Detection Kit I as described by the manufacturer (Roche Molecular Biochemicals). The percentage of cell death was determined as the ratio of the number of DTR-TLUNEL-double-positive cells over the total number of DIR-positive cells.
Treatment with caspase inhibitors, cycloheximide, actinomycin D. Caspase pan inhibitor, Z-Valine-Alanine-Aspartic acid-fluoromethylketone (Z-VAD-fmk) (Biomol, Plymounth Meeting, PA); caspase-6 inhibitor, Z-Valine-Glutamic acid-Isoleucine-Aspartic acid-fmk (Z-VEID-fnk); caspase-3 inhibitor, Z-Aspartic acid-Glutamic acid-Valine-Aspartic acid-fmk (Z-DEVD-fmk); and caspase-8 inhibitor, Z-Isoleucine-Glutamic acid-Threomine-Aspartic acid-fmk (Z-IETD-fmk) (Sigma, Oakville, ON, Canada) were dissolved in 100% dimethylsulphoxide (DMSO, Sigma) at 5 mM and were diluted at 5 μM into culture medium immediately before use. The medium was changed every 48 hours.
Stock solutions of 5 mg/ml cycloheximide and 200 IM actinomycin D were made in sterile distilled water and diluted to 5 μg/ml for cycloheximide and 5 μM for actinomycin D in the culture medium immediately before use.
Dextran Texas Red (DTR) was co-injected with Aβ1-42 to identi the injected cells from the non-injected cells. The experiment was done on 200 microinjected neurons per preparation of neurons and on three independent neuron preparations.

The test system of the next assay is human neurons. Briefly: Exposure of human neurons to extracellular Aβ peptides, TUNEL and propidium iodide. The assay is classed as cell-based. The note with it: 10 μM extracellular, 24 hours. The procedure: To test if this particular batch of peptide might be neurotoxic, neurons were treated with 10 μM of peptides for 24 hours.
The test system of a further assay is primary human neurons. Briefly: Microinjection of Aβ peptides into the cytosol of primary human neurons, cell death by TUNEL. Format: cell-based. The note with it: for intracellular toxicity to human neurons (in words): peptide microinjected into cytosol; for neuronal cell death (in words): fibrillized or non-fibrillized preparation, 10 nM, 24, 48 and 96 hours. The procedure:
Cell cultures. Primary cultures of human neurons and astrocytes were prepared as described in LeBlanc, A., J. Neurosci. 15:7837-46 (1995), incorporated herein by reference. Fresh brain tissues were dissociated with 0.25% trypsin (Gibco-BRL) in phosphate buffered saline (PBS) at 37° C. for 15 minutes. The trypsin was inactivated. by adding 10% decomplemented fetal bovine serum (FBS, HyClone, Logan, Utah.) to the mixture. The dissociated tissues were triturated in 0.1 mg/ml DNaseI (Gibco-BRL) to obtain a homogeneous mixture. The mixture was filtered successively through 130 and 70 gm filters and centrifuged at 15,000 g for 10 minutes at 10° C. to pellet the cells. The cell pellet was washed once with PBS and once with minimal essential media (MEM, Gibco-BRL) in Earle's balanced salt solution containing 0.225% sodium bicarbonate, 1 mM sodium pyruvate, 2 mM L-glutamine, 0.1% dextrose, 1×antibiotic Pen-Strep (all from Gibco-BRL) and 5% decomplemented FBS.
The cells were plated on poly-L-lysine-coated ACLARTM (Cat. No.: 33C; thickness: 0.5 mm; Allied Chemical, Minneapolis, Minn.) coverslips at a density of 3×10^6 cells/ml. Neurons and astrocytes were incubated at 37° C. in the MEM media with 5% CO2, and the media were changed every 48 hours. For neuron culture, 1 mM fluorodeoxyuridine (FDU, Gibco-BRL) was applied for the first 3 feedings and after that, used weekly to prevent proliferation of dividing cells. […] Microinjection or treatment was performed 10 days after plating for neurons and astrocytes.
Aβ peptides. Aβ peptides (Bachem, King of Prussia, Pa.) were dissolved in sterile distilled water at 25 μM and incubated at 37° C. for 5 days. The peptides stock solutions were frozen and diluted in 1×PBS immediately before microinjection. […] A 250 μl aliquot was diluted to 0.25 μM and immediately frozen at −20° C. in aliquots of 50 μl. The remaining solution was incubated at 37° C. in Eppendorf tubes with continuous mixing by inversion. After incubation, the samples were removed, vortexed, sonicated twice for 1 minute in a bath type sonicator (ELMA GmbH & Co. KG, Germany) and frozen at −20° C. in […]. Each aliquot was used once to avoid possible effects of freeze and thaw cycles.
as §1
The diluted peptides were injected at the indicated concentrations with 100 μg/ml dextran Texas Red (DTR) (MW: 3000, Molecular Probes, Eugene, Oreg.) as a fluorescent marker to recognize the injected cells.
Measurement of neuronal apoptosis. Cells were fixed in freshly prepared 4% paraformaldehyde/4% sucrose for 20 minutes at room temperature and permeabilized in 0.1% Triton X-100, 0.1% sodium citrate on ice for 2 minutes. Terminal deoxynucleotidyl transferase-mediated dUTP nick end labeling (TUNEL) was performed using the In Situ Cell Death Detection Kit I as described by the manufacturer (Roche Molecular Biochemicals).

“Also recorded” adds a separate entry of the source. Numbered stars: 1 amine (or outer) side, 2 acyl side, 3 side chain; on linkers, the order of the positions; unused ones are H or OH. Bridge positions count the residues as written; N and C are the ends. Square brackets hold non-standard residues; d marks the D form. Peptide text beside a SMILES is read from it. I, II: the chains in the order shown. * marks the point of attachment. Actinocin(9to1) = Cc1c2oc3c(C)ccc(C(=O)[*:1])c3nc-2c(C(=O)[*:2])c(N)c1=O; NMeV = CN[C@H](C(=O)O)C(C)C; Cbz = O=C(OCc1ccccc1)*; Sar = CNCC(=O)O; CH2F = FC*

Turning to `CC(C)[C@H](NC(=O)[C@H](CCC(=O)O)NC(=O)[C@H](CC(=O)O)NC(=O)OCc1ccccc1)C(=O)N[C@@H](CC(=O)O)C(=O)CF` [Z-DEVD-fmk, Z-Aspartic acid-Glutamic acid-Valine-Aspartic acid-fmk], the “inhibition of the Aβ1-42-induced cell death” value in assay [1] is recorded as 30%.
`CC[C@H](C)[C@H](NC(=O)OCc1ccccc1)C(=O)N[C@@H](CCC(=O)O)C(=O)N[C@H](C(=O)N[C@@H](CC(=O)O)C(=O)CF)[C@@H](C)O` [Z-IETD-fmk, Z-Isoleucine-Glutamic acid-Threomine-Aspartic acid-fmk] (Cbz-IETD-CH2F): the “prevention of Aβ1-42-induced neuronal cell death (in words)” value (“prevention” for short) in assay [1] was “completely prevents”.
Regarding `COC(=O)C[C@H](NC(=O)[C@H](C)NC(=O)[C@@H](NC(=O)OCc1ccccc1)C(C)C)C(=O)CF` [Z-VAD-fmk, Z-Valine-Alanine-Aspartic acid-fluoromethylketone] (Cbz-Val-Ala-Asp(OMe)-CH2F), in assay [1], the “prevention” value is on record as “completely prevents”.
As to `COC(=O)C[C@H](NC(=O)[C@H](C)NC(=O)[C@@H](NC(=O)[C@H](Cc1ccc(O)cc1)NC(=O)OCc1ccccc1)C(C)C)C(=O)CF` [Z-YVAD-fmk], the “inhibition of the Aβ1-42-induced cell death” value in assay [1] worked out at 30%.
In the case of `Cc1c2oc3c(C)ccc(C(=O)N[C@@H]4C(=O)N[C@H](C(C)C)C(=O)N5CCC[C@H]5C(=O)N(C)CC(=O)N(C)[C@@H](C(C)C)C(=O)O[C@@H]4C)c3nc-2c(C(=O)N[C@@H]2C(=O)N[C@H](C(C)C)C(=O)N3CCC[C@H]3C(=O)N(C)CC(=O)N(C)[C@@H](C(C)C)C(=O)O[C@@H]2C)c(N)c1=O` [actinomycin D] (I: T[dV]P[Sar][NMeV] / II: T[dV]P[Sar][NMeV]; ester I:1-I:C, II:1-II:C; linker I:N-II:N via Actinocin(9to1)), the “block of Aβ1-42-induced neuronal death (in words)” value in assay [1] was “efficiently block”.
On the same count and under the same terms, in the case of `C[C@@H]1C[C@@H]([C@H](O)CC2CC(=O)NC(=O)C2)C(=O)[C@@H](C)C1` [cycloheximide] it was “efficiently block”.
For “Aβ1-40: 40 amino acid amyloid β peptide (SEQ ID NO: 1)”, the “toxicity of extracellular peptide (in words)” value in the assay with human neurons is “do not undergo cell death; also recorded: Neither extracellular Aβ1-40, Aβ1-42, or Aβ40-1 are toxic”. Further, in the assay on primary human neurons (10 nM aged peptide, between 24 and 96 hours), the “effect on cell viability” value is “do not affect cell viability”. For the same compound, the “cell death of microinjected neurons” value with primary human neurons (10 nM aged peptide, sixteen days after injection) is recorded as 50%. In the assay with primary human neurons, the “intracellular toxicity to human neurons (in words)” value is given as “not observed to be toxic; also recorded: significant apoptosis only 16 days after microinjection”.
For “Z-Valine-Glutamic acid-Isoleucine-Aspartic acid-fmk [Z-VEID-fmk]”, the “prevention” value in assay [1] is given as “completely prevents”.
As to “fibrillized Aβ1-40: Aβ1-40 incubated at 37° C. with mixing”, the “neuronal cell death (in words)” value with primary human neurons is reported as “neither fibrillized nor non-fibrillized Aβ1-40 cause significant cell death”.
Turning to “non-fibrillized Aβ1-40: disaggregated Aβ1-40 diluted and immediately frozen”, the “neuronal cell death (in words)” value in the assay with primary human neurons is given as “neither fibrillized nor non-fibrillized Aβ1-40 cause significant cell death”.
With “non-fibrillized Aβ1-42: disaggregated Aβ1-42 diluted and immediately frozen”, the “intracellular toxicity to human neurons (in words)” value in the assay on primary human neurons is given as “as neurotoxic as fibrillized”.

Source of the values: patent US20040248766A1, “Selective inhibition of intracellular amyloid-beta neurotoxicity in human neurons” (priority 2001, published 2004).
